Test results: patent US20230102192A1, “THERAPIES FOR THE TREATMENT OF DISEASES AND DISORDERS ASSOCIATED WITH ABNORMAL EXPRESSION OF A NEURAL-ASSOCIATED GENE” (The Regents of the University of California, priority 2020, published 2023)
“Also recorded” adds a separate entry of the source.

How the values were obtained:
Type in all cases: cell-based, human
MECP2-KO neurons [1] = assay: Calcium imaging of neurons; settings: vs untreated KO
Description: Pharmacologic treatment. One-month old cortical organoids were treated for 1 mo with either Nefiracetam (10 μM) or PHA 543613 (10 μM) during media changes.
Calcium imaging. Calcium imaging was performed as described in Chailangkarn et al. Briefly, PSC-derived neuronal networks were lentivirally transduced with a Syn::RFP reporter construct. Cultures were washed with Krebs HEPES buffer and incubated with Fluo-4AM (Molecular Probes/Invitrogen, Carlsbad, Calif., USA). A Hamamatsu ORCA-ER digital camera (Hamamatsu Photonics, Japan) with 488 nm filter on an Olympus IX81 inverted fluorescence confocal microscope (Olympus Optical, Tokyo, Japan) acquired 5000 frames at 28 Hz in a 256×256 pixel region (100× magnification). Images were acquired with MetaMorph7.7 (MDS Analytical Technologies, Sunnyvale, Calif., USA) and analyzed with ImageJ and Matlab7.2 (Mathworks, Natick, Mass., USA). Syn::RFP+ neurons were selected following tetrodotoxin blockade of calcium transients. A 95th-percentile threshold of amplitude for calcium spikes was set for event detection; signal amplitude is presented as fluorescence change (ΔF/F) following background subtraction.

[2] = test system: MECP2-mosaic (CTR/KO) neurospheres; assay: Neurosphere size (diameter); settings: 8-week MECP2-mosaic neurospheres, P=0.79
Source text: Nefiracetam and PHA 543613 increase activity in MECP2-mosaic neurospheres. Because MECP2 resides on the X chromosome, random X-inactivation in females can produce a genetic pattern of mosaicism, with consequent phenotypic gradation, in which some cells express the normal allele while others are mutant. Therefore, as the next stage to evaluate the two drug candidates, a neurosphere model of MECP2 mosaicism was developed to mimic the female RTT brain by combining different proportions of control and MECP2-KO NPCs (see FIG. 7A-C). […] Calcium transient frequency in MECP2-mosaic neurospheres was increased by treatment with Nefiracetam in isolation (1 μM, P<0.05) and when combined with PHA 543613 (10 μM, P<0.001; FIG. 7H), but calcium transient amplitude was unaffected by either compound (P=0.255; FIG. 7I). To investigate the impact of the drug treatments on the electrophysiological properties of the MECP2-mosaic model, neurospheres treated with 1 μM Nefiracetam, 1 μM PHA 543613, or both Nefiracetam and PHA 543613 were plated to perform MEA analysis. […] Because each drug conferred a benefit to MECP2-mosaic neurospheres, both Nefiracetam and PHA 543613 were retained for further evaluation in a more complex human neurodevelopmental model.

[3] = test system: MECP2-mosaic (CTR/KO) neurospheres; assay: MEA analysis of neurospheres; settings: 1 μM, after 5 weeks of treatment, vs CTR/KO untreated
Description: Multi-electrode array (MEA) analysis. MEA analyses of neurons and cortical organoids were performed as described in Nageshappa et al. (Mol. Psychiatry 21:178-188 (2016)). Briefly, 3D neurosphere cultures of NPC derivation were plated on dual-chamber MEA; spontaneous spike activity was evaluated with the MED64 System (Panasonic). Glutamatergic (AP5, NBQX), GABAergic (Gabazine), and gap channel (Mefloquine) antagonism were used to check neuronal activity. After measurement, neurons were immunostained to check morphology and density. Recorded spikes were analyzed with the software Neuroexplorer (Nex Technologies, Madison, Ala., USA). For cortical organoids, 1-month organoids were plated on MEA plates and recordings were collected with a Maestro MEA system and AxIS Software Spontaneous Neural Configuration (Axion Biosystems, Atlanta, Ga., USA) using a customized script. The plate rested in the machine for three minutes followed by four minutes of recording. Axion Biosystems' Neural Metrics Tool classified electrodes with at least 5 spikes/min as active. Bursts were identified using an inter-spike interval (ISI) threshold requiring a 5-spike minimum and 100 ms maximum ISI. […] The synchrony index was calculated using a 20 ms cross-correlogram synchrony window was used to determine the synchrony index. […]

[4] = test system: MECP2-mosaic (CTR/KO) neurospheres; assay: Nuclei size in neurospheres; settings: vs CTR/KO untreated
MECP2-KO neurons [5] = assay: Neuronal morphology (neurites, spine density); settings: vs KO untreated
MECP2-KO neurons [6] = assay: Neuronal morphology (neurites, spine density); settings: vs KO untreated; remark: listed apart in the source
Description: Spine density and morphology/stability/motility. pHIV7/Syn-EGFP lentivirus was prepared by transfecting HEK cells using the transfection agent polyethyleneimine (Polysciences, Inc., Warrington, Pa., USA), pSyn-EGFP and packaging plasmids pMDL, Rev RSV and VSVG. During cortical neuron differentiation, on day 40, control and MECP2dup neurons were transduced with pHIV7/syn-EGFP. Post transduction, neurons were further differentiated until day 70 and were fixed with 4% PFA and further processed for imaging. Confocal images were obtained using a confocal laser-scanning microscope (Nikon), 60× oil objective, with a sequential acquisition setting at 4096×4096 pixels resolution. Each image is a Z-series projection of ˜7 to 15 images, averaged 2 times and taken at 0.5 μm depth intervals. GFP-labeled differentiated neurons were chosen randomly for quantification. Quantitative analysis was performed in a blinded manner. Dendrites on primary branches were selected randomly and for each neuron two to three segments of 10 μm were analyzed. Morphometric measurements were performed manually using the ImageJ software (1.44p version). Each spine on the dendrites was manually traced. The length and head width of each spine was automatically measured and used to categorize the spines. Specifically, spines where defined as thin and filopodia (immature) or mushroom and stubby (mature) according to the criteria defined previously. Twenty-two (51 segments of 10 μm) and 18 (42 segments of 10 μm) neurons were analyzed for the control and MECP2dup neurons, respectively; two clones for each condition.
Analysis of neuronal morphology. PSC-derived neuronal morphometry was performed as described in Chailangkarn et al. Briefly, neurons with branching neurites featuring dendritic spine-like protrusions were selected, and neuronal morphology was quantified using Neurolucida v9 (MBF Bioscience, Williston, Vt.) via Nikon Eclipse E600 microscope (40× oil). Measurements were as follows: Spine number: number of spines protruding from neurites; soma size: soma area on cross-section; spine length: summed length of all spines per neuron. The rater traced the same neuron after a period of time to ensure intra-rater reliability.

Compound	frequency of calcium oscillations (MECP2-KO neurons [1])	percentage of active neurons (MECP2-KO neurons [1])	neurosphere diameter [2]	MEA overall spike count / spike frequency [3]	nuclei size in neurospheres [4]	spine density / neuronal spine-like protrusions (MECP2-KO neurons [5])	number of neurites (MECP2-KO neurons [6])	total neurite length (MECP2-KO neurons [6])
Cc1cccc(C)c1NC(=O)CN1CCCC1=O [Nefiracetam, nefiracetam]	increases; also recorded: significantly increase	increase	did not alter	increased	did not rescue	rescued or partially rescued	did not increase; also recorded: did not rescue	did not increase; also recorded: did not rescue
O=C(N[C@H]1CN2CCC1CC2)c1cc2ccoc2cn1 [PHA 543613, N-[(3R)-1-azabicyclo[2.2.2]oct-3-yl]furo[2,3-c]pyridine-5-carboxamide]	increases; also recorded: significantly increase	increase	did not alter	increased	did not rescue	rescued or partially rescued	did not increase; also recorded: did not rescue	did not increase; also recorded: did not rescue
